Results taken from patent US10391095B2, “DNA-PK inhibitors” (Vertex Pharmaceuticals Incorporated, priority 2012, dated 2019).

The compounds below were run against DNA-PK (Homo sapiens, UniProt P78527) (assay: DNA-PK inhibition assay (radiometric, 33P-ATP)). Conditions: 100 μM ATP, competitive tight-binding fit.
Assay type: biochemical
Method in brief: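 33P transfer from 100 µM ATP to a DNA-PK peptide (0.8 mg/mL) is measured after 45 min, using about 6 nM enzyme activated by 10 µg/mL sheared dsDNA (HEPES pH 7.5, MgCl2, DTT). Filter-bound counts fitted to a competitive tight-binding inhibition model give Ki.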

Ki, < 30 nM:
CNC(=O)c1c(OC)cnc2c([C@H](C)CNc3cc(-c4ccc(C)nc4)ncn3)cccc12 [Compound 762]
C[C@H](CNc1cc(-c2ccc3ccncc3c2)ncn1)c1ccnc2c1OCCO2 [Compound 541]
CNC(=O)c1ccnc2c([C@H](C)CNc3cc(-c4cnc(OC)c(COC)c4)ncn3)cccc12 [Compound 944]
Cc1ccc(-c2cc(NC[C@@H](C)c3ccccc3O)ncn2)cn1 [Compound 109]
CNC(=O)c1ccnc2c([C@H](C)CNc3cc(-c4cnc(N)c(F)c4)ncn3)cccc12 [Compound 867]
COc1ccccc1CCNc1cc(-c2cnc3c(ccn3C(C)C)c2)ncn1 [Compound 37]
CNC(=O)c1ccnc2c([C@H](C)CNc3cc(-c4ccc(C5(C#N)CC5)cc4)ncn3)cccc12 [Compound 681]
CC(CNc1cc(-c2ccc(C(=O)NCCC#N)cc2)ncn1)c1ccnc2cccnc12 (stereo not shown) [Compound 431]
Cc1ccc(-c2cc(NC[C@@H](C)c3cc(C)nc4c3OCC4)ncn2)cn1 [Compound 502]
CNC(=O)c1ccc([C@H](C)CNc2cc(-c3ccc(NCCCO)nc3)ncn2)c(OC)c1 [Compound 355]
CNC(=O)c1ccc(C(C)CNc2cc(-c3ccc4ncccc4c3)ncn2)c(OC)c1 (stereo not shown) [Compound 256]
CNC(=O)c1ccnc2c([C@H](C)CNc3cc(-c4cnnc(C)c4)ncn3)ccc(F)c12 [Compound 969]
CNC(=O)c1ccnc2c([C@H](C)CNc3cc(-c4cnc5c(c4)OCCN5)ncn3)cccc12 [Compound 817]
CNC(=O)c1c(F)cnc2c([C@H](C)CNc3cc(-c4ccc(OC)nc4)ncn3)cccc12 [Compound 900]
CNC(=O)c1ccnc2c([C@H](C)CNc3cc(-c4cnc(OC)c(OC)c4)ncn3)ccc(F)c12 [Compound 906]
CNC(=O)c1ccnc2c([C@H](C)CNc3cc(-c4cncc(-c5nnco5)c4)ncn3)cccc12 [Compound 960]
CNC(=O)c1ccnc2c([C@H](C)CNc3cc(-c4cnc5c(c4)COC5)ncn3)ccc(F)c12 [Compound 967]
COc1ccccc1[C@H](C)CNc1cc(-c2ccnc(NCC(O)CO)c2)ncn1 (single isomer, unassigned) [Compound 208]
CNc1ccccc1[C@H](C)CNc1cc(-c2ccc(C(=O)NCCC#N)nc2)ncn1 [Compound 408]
CCNc1ccc(-c2cc(NC[C@@H](C)c3ccnc4cc(C)oc34)ncn2)cn1 [Compound 573]
CNC(=O)c1ccnc2c([C@H](C)CNc3cc(N4CCn5c(C6CCN(C)CC6)cnc5C4)ncn3)cccc12 [Compound 826]
CC(CNc1cc(-c2cnc3c(cnn3CCO)c2)ncn1)c1cncc2c1OCC2 (stereo not shown) [Compound 419]
CC(CNc1cc(-c2cnc3c(cnn3CC3CC3)c2)ncn1)c1ccccc1OC1COC1 (stereo not shown) [Compound 217]
CNC(=O)c1c(F)cnc2c([C@H](C)CNc3cc(-c4cccs4)ncn3)cccc12 [Compound 689]
CCNc1ccc(-c2cc(NC[C@@H](C)c3cc(F)cc4c(C(=O)NC)ccnc34)ncn2)cn1 [Compound 572]
CNc1ncc(-c2cc(NC[C@@H](C)c3ccccc3OC)ncn2)cn1 [Compound 137]
CNC(=O)c1c(F)cnc2c([C@H](C)CNc3cc(-c4ccnc(C5CCC5)c4)ncn3)cccc12 [Compound 919]
CNC(=O)c1c(F)cnc2c([C@H](C)CNc3cc(-c4cnc(OC)c(OC)c4)ncn3)cccc12 [Compound 898]
